Results published in patent publication US12649907B2, “Alternate detergents for viral inactivation” (AMGEN INC., priority 2019, dated 2026).
Values joined by “and” are separate entries in the source; they are usually repeats but may differ in a detail not shown here. Identical values can stand only once.

Assays:
[1] = tested on: xMuLV; assay: Temperature-dependent study, TCID50 LRV in host cell culture fluid matrices; assay type: cell-based, xenotropic murine leukemia virus; conditions: for Viral inactivation in the presence of therapeutic modalities: between 30 seconds and 30 minutes, temperatures as low as 5° C. and 15° C.; for Inactivation at 30 minutes at both 5° C. and 15° C.: mAb, BiTE ®, fusion protein matrices
[2] = Turbidity of detergent spiked HCCF; assay type: physicochemical; conditions: HCCF spiked at five times CMC, room temperature 5 days and 2-8° C. 7 days
Procedure: Determination of turbidity was used to measure the stability of detergent spiked samples. Increased turbidity of the sample would reflect a precipitation of the protein molecule. 100 mL of harvested cell culture fluid (HCCF) collected from cultures of each molecule were subjected to four conditions: HCCF containing no detergent (control), APO128, APO129 and Triton X-100. The detergents were spiked at five times the detergent's critical micelle concentration (CMC) values, Triton-X: […] Two sample sets were generated for each molecule; one set was kept at room temperature for 5 days. The second set was kept at 2-8° C. for 7 days. The turbidity of each sample was measured using a turbidimeter (Hach Turbidime[…] 46500-00, Loveland, CO) on days 0, 1, 2, 5, and 7.

[3] = tested on: PRV; assay type: cell-based, pseudorabies herpes virus
[4] = tested on: MMV; assay: Concentration study, lowest concentration to inactivate virus; assay type: cell-based, mouse minute virus
[5] = tested on: xMuLV; assay: Kinetic study of detergents, TCID50 LRV in host cell culture fluid matrices; assay type: cell-based, xenotropic murine leukemia virus
[6] = tested on: xMuLV; assay: Concentration study, lowest concentration to inactivate virus; assay type: cell-based, xenotropic murine leukemia virus; conditions: 15° C., 30-minute incubation
[7] = as indicated by the Hampton Kit; cited from earlier work
[8] = tested on: xMuLV; assay type: cell-based, xenotropic murine leukemia virus; conditions: initial screen, 10× CMC or 10% w/v, 30 minutes, 15° C., 5% virus spike, PG4 cells

Molecule	Precipitation of protein modalities (turbidity) [2]	LRV BiTE ® ([1]; 5° C., 30 minutes, 5× CMC)	LRV fusion protein ([1]; 5° C., 30 minutes, 5× CMC)	LRV mAb ([1]; 5° C., 30 minutes, 5× CMC)	LRV BiTE ® ([1]; 15° C., 30 minutes, 5× CMC)	LRV fusion protein ([1]; 15° C., 30 minutes, 5× CMC)	LRV mAb ([1]; 15° C., 30 minutes, 5× CMC)	Cytopathic effects (CPE) at 2.5×CMC [3]	Cytopathic effects (CPE) at 2.5×CMC [4]	LRV 30 s ([5]; BiTE ® #1, 15° C.)	LRV 10 min ([5]; BiTE ® #1, 15° C.)	LRV 30 min ([5]; BiTE ® #1, 15° C.)	LRV 30 s ([5]; fusion protein #1, 15° C.)	LRV 10 min ([5]; fusion protein #1, 15° C.)	LRV 30 min ([5]; fusion protein #1, 15° C.)	LRV 30 s ([5]; mAb #1, 15° C.)	LRV 10 min ([5]; mAb #1, 15° C.)	LRV 30 min ([5]; mAb #1, 15° C.)	Cytopathic effects (CPE) at 2.5×CMC [6]	CMC [7] [mM]	also measured
polyoxyethylene octyl phenol ether [Triton X-100, reference compound]	none of the detergents tested caused precipitation	–	–	–	–	–	–	–	–	–	–	–	–	–	–	–	–	–	–	–	LRV fusion protein ([1]; Triton X-100 control, 7° C., 800-sample large volume plate (1 LRV increase), Run 1 and Run 2): 5.03 ± 0.58 and 5.04 ± 0.57
CCCCCCCCCCCCOCCOCCOCCOCCOCCOCCOCCOCCO [Anapoe C12E8, 3,6,9,12,15,18,21,24-oxtaoxahexatriacontan-1-ol]	none of the detergents tested caused precipitation	≥4.03 ± 0.18	≥4.23 ± 0.33	≥4.41 ± 0.37	≥4.32 ± 0.35	≥4.99 ± 0.42	≥3.28 ± 0.34	showed cytopathic effects (CPE)	showed cytopathic effects (CPE)	≥3.32 ± 0.35	≥3.32 ± 0.35	≥3.32 ± 0.35	≥3.99 ± 0.42	≥3.99 ± 0.42	≥3.99 ± 0.42	≥3.28 ± 0.34	≥3.28 ± 0.34	≥3.28 ± 0.34	showed cytopathic effects (CPE)	0.11	Viral inactivation in the presence of therapeutic modalities [1]: complete viral inactivation; Inactivation at 30 minutes at both 5° C. and 15° C. [1]: complete inactivation; Viral inactivation towards xMuLV (CPE) [8]: robustly inactivate the virus
Polyoxyethylene(9)dodecyl ether [Anapoe C12E9]	none of the detergents tested caused precipitation	≥3.84 ± 0.33	≥4.19 ± 0.25	≥3.91 ± 0.30	≥3.91 ± 0.43	≥4.32 ± 0.36	≥4.23 ± 0.38	showed cytopathic effects (CPE)	showed cytopathic effects (CPE)	2.61 ± 0.68	≥2.91 ± 0.43	≥2.91 ± 0.43	2.56 ± 0.60	≥3.32 ± 0.36	≥3.32 ± 0.36	≥3.23 ± 0.00	≥3.23 ± 0.00	≥3.23 ± 0.00	showed cytopathic effects (CPE)	0.05	Viral inactivation in the presence of therapeutic modalities [1]: complete viral inactivation; Inactivation at 30 minutes at both 5° C. and 15° C. [1]: complete inactivation; Time to complete inactivation of xMuLV ([5]; BiTE® #1): ≤ 10 min; Time to complete clearance of xMuLV ([5]; all three therapeutic modalities): ≤ 10 min; Time to complete inactivation of xMuLV ([5]; fusion protein #1): ≤ 10 min; Time to complete inactivation of xMuLV ([5]; mAb #1): 0.5 min; Viral inactivation towards xMuLV (CPE) [8]: robustly inactivate the virus
CCCCCCCCCCOP(=O)([O-])OCC[N+](C)(C)C [Fos-Choline ®-10, n-decylphosphocholine]	–	2.09 ± 0.31	1.76 ± 0.41	2.54 ± 0.34	3.92 ± 0.67	3.51 ± 0.43	3.97 ± 0.90	showed cytopathic effects (CPE)	showed cytopathic effects (CPE)	0.69 ± 0.44	1.57 ± 0.47	3.92 ± 0.67	0.82 ± 0.57	1.82 ± 0.51	3.51 ± 0.43	0.69 ± 0.31	1.61 ± 0.56	3.97 ± 0.90	showed cytopathic effects (CPE)	11	Inactivation towards xMuLV at any temperature tested ([1]; in product matrices): did not yield significant inactivation; average LRV ([1]; process temperature of 15° C., average over modalities): 3.8; Clearance of xMuLV within 30 minutes ([5]; 15° C.): did not lead to robust clearance
